From patent US10501493B2, “Broad spectrum antibiotics” (priority 2011, dated 2019)
≈ marks a conversion by molar mass, not a printed value. Read-outs that look alike come from different tables or passages of the source.

How the values were obtained:
[1] = system: S. pneumoniae D39; assay: In vitro antimicrobial activity, MIC by broth micro-dilution; assay type: cell-based; conditions: for MIC: Streptococcus pneumoniae, D39, read-out: MIC class, S. pneumoniae D39
Procedure: (§1) In vitro antimicrobial activity of each compound was determined by measuring minimal inhibitor concentrations (MICs) using the broth micro-dilution technique as approved by the Clinical and Laboratory Standards Institute (CLSI). The microbiological panel examined contains a number of bacterial species including E. coli MG1655, P. aeruginosa, S. aureus, and S. epidermidis. In addition, the panel includes previously described pseudo-isogenic strains of these four species (P. A. Smith et al. Chem Biol 2010, 1223-1231), in which a specific proline residue in SPase (called LepB in Gram-negative organisms an SpsB in Gram-positive organisms) has been mutated to a different amino acid. The resulting strains have increased susceptibility to the arylomycin class of antibiotics. Analysis of the strains lacking this proline residue will increases the dynamic range of the assay, and comparison of the sensitivities of the isogenic pairs provides ongoing confirmation that the activity gained through derivatization is specific to the inhibition of SPase. Briefly, bacterial streaks were grown on Mueller Hinton Agar II (Difco™) with or without 5% lysed horse blood for a period of 24 hours at either 35° C. or 28° C. Bacterial colonies were suspended in cation adjusted Mueller Hinton broth and diluted to a final concentration of 1*10^7 colony forming units/ml. Two-fold serial dilutions of each compound were arrayed into 96-well plates (100 μl final volume per well) and 5 ul of the bacterial suspension will be added. […] MICs were periodically checked plating serial dilutions of MIC wells and quantitatively determining viable colonies.

[2] = system: S. aureus NCTC-8325 SpsB(P295); assay: as above; assay type: cell-based; conditions: for MIC: Staphylococcus aureus, NCTC8325, read-out: MIC class, S. aureus NCTC-8325 SpsB(P295)
Procedure: as §1

[3] = system: E. coli ATCC 25922; assay: as above; assay type: cell-based; conditions: for MIC: Escherichia coli, ATCC25922, read-out: MIC class, E. coli ATCC 25922
Procedure: as §1

[4] = system: S. epidermidis RP62A; assay: as above; assay type: cell-based; conditions: for MIC: Staphylococcus epidermidis, RP62A, read-out: MIC class, S. epidermidis RP62A
Procedure: as §1

[5] = target: T1, S. aureus SPase (Staphylococcus aureus, UniProt P0A070); assay: Enzymatic fluorogenic substrate cleavage assay for IC50; assay type: biochemical
T1 construct: Full length His-tagged S. aureus SPase protein was expressed similarly; His-tag; made in house; host or cells: E. coli BL21(DE3)
Procedure: (§2) Full length His-tagged E. coli SPase proteins were expressed in E. coli BL21(DE3) containing the plasmid pET23-lepB, P. A. Smith et al. Chem Biol 2010, 1223-1231. Briefly, saturated overnight cultures grown in 20 ml of Luria-Bertani medium supplemented with ampicillin were subcultures into 1.5 L of Luria-Bertani, and shaken at 37° C. until an optical density at 600 nm of 0.4-0.5 was achieved. Protein expression was induced with Isopropyl β-D-1-thiogalactopyranoside (ITPG) at a final concentration of […], and purified using nickel affinity chromatography. Full length His-tagged S. aureus SPase protein was expressed similarly from E. coli BL21(DE3) containing the plasmid pCDF1-SaSpsB or pCDF1-SaSpsB(P29S) and purified similarly to the E. coli protein with the following exceptions. SPase protein was solubilized using 300 mM NaCl, 20 mM Tris pH 8.06, 5 mM Imidazole, 10% glycerol, 1% Triton X-100, prior to purification in Ni-NTA Superflow resin and resin bound protein was washed in a similar buffer containing 1% Elugent in place of Triton X-100 prior to protein eluted in wash buffer supplemented with 300 mM imidazole. Protein purify was judged to exceed 95% by visual inspection of SDS-PAGE followed by Comassie staining. All protein concentrations were determined by BCA assay.
(§3) In addition to the equilibrium binding assays, compound activity is also characterized by measuring inhibition of E. coli and S. aureus substrate cleavage reactions using fluorogenic peptides developed at RQx Pharmaceuticals. Briefly, two fluorogenic peptide substrates (decanoyl-LSSPA Y^NO2 A ? ADK^abzPD (SEQ ID NO: 1) and decanyol-LTPTAY^NO2 A ? ASKK^abzDD (SEQ ID NO: 2)) have been synthesized, where abz is the fluorescence donor 2-aminobenzamide, YNO2 is the fluorescence acceptor 3-nitrotyrosine, and the cleavage site is indicated with an arrow. These substrates are processed with a second order rate constant (Kcat/KM) of 10^5 M^−1s^−1 for E. coli and S. aureus SPase enzymes, and cleavage results in a greater than 10-fold increase in fluorescence signal (excitation at 314 nm, emission at 416 nm) as measured using a SpectraMax M2 fluorescence microplate reader. Two-folder serial dilutions of compound are prepared in cleavage reaction buffer consisting of: 50 mM Tris-HCl pH 8.0, 100 mM NaCl, 10% glycerol, 1 mM EDTA, detergent (1% NP-40 or 0.1% Elugent™ for E. coli LepB or S. aureus SpsB respectively) and either 2.5 nM of E. coli SPase enzyme or 10 nM of S. aureus SPase enzyme. 40 μl aliquots of the compound dilution series in the protein/buffer solution is transferred to black 384-well polypropylene plates, and 10 μl of fluorogenic peptide at a concentration of 100 μM is added to initiate the reaction. The increase in fluorescence, corresponding to substrate cleavage, is monitored continuously at room temperature for 30 minutes and initial reaction rates are calculated based in the linear increase in fluorescence from the initial 30 minutes of the reaction. Reaction rates are plotted as a function of compound concentration, and IC50 values are determined nonlinear regression analysis (SoftMax® Pro v5.4) of the sigmoidal dose-response curve.

[6] = target: T2, E. coli SPase (Escherichia coli, UniProt P00803); assay: as above; assay type: biochemical
T2 construct: Full length His-tagged E. coli SPase proteins were expressed in E. coli BL21(DE3); His-tag; made in house; host or cells: E. coli BL21(DE3)
Procedure: as §2, §3

[7] = system: E. col ATCC 25922 LepB(P84L); assay: In vitro antimicrobial activity, MIC by broth micro-dilution; assay type: cell-based, E. coli; conditions: for MIC: Escherichia coli, ATCC25922, read-out: MIC class, E. col ATCC 25922 LepB(P84L)
Procedure: as §1

[8] = system: S. aurues NCTC-8325; assay: as above; assay type: cell-based, S. aureus; conditions: for MIC: Staphylococcus aureus, NCTC8325, read-out: MIC class, S. aurues NCTC-8325
Procedure: as §1

Compound	MIC [1] [µg/mL]	MIC [2] [µg/mL]	MIC [3] [µg/mL]	MIC [4] [µg/mL]	IC50 [5] [nM]	IC50 [6] [nM]	MIC [7] [µg/mL]	MIC [8] [µg/mL]	MIC class, S. pneumoniae D39 [1]	MIC class, S. aureus NCTC-8325 SpsB(P295) [2]	MIC class, E. coli ATCC 25922 [3]	MIC class, S. epidermidis RP62A [4]	MIC class, S. aurues NCTC-8325 ([8]; S. aurues NCTC-8325)	MIC class, E. col ATCC 25922 LepB(P84L) [7]	IC50 ([5]; fluorogenic peptide cleavage, read-out: IC50 class S. aureus SPase) [nM]	IC50 ([6]; fluorogenic peptide cleavage, read-out: IC50 class E. coli SPase) [nM]
CCCCCCCCCCCCCCCC(=O)N(C)[C@H](CO)C(=O)N[C@H](C)C(=O)NCC(=O)N(C)[C@@H]1C(=O)N[C@@H](C)C(=O)N[C@H](C(=O)NCCO)Cc2ccc(O)c(c2)-c2cc1ccc2O [Compound 54]	< 8	16 to 64 (≈ 17.3 to 69.3 µM)	> 64	< 8	1000 to 10000	< 1000	< 8	–	–	–	–	–	–	–	–	–
CCCCCCCCCCCCCCCC(=O)N[C@H](CCN)C(=O)N[C@H](C)C(=O)NCC(=O)N(C)[C@@H]1C(=O)N[C@@H](C)C(=O)N[C@H](C(=O)O)Cc2ccc(O)c(c2)-c2cc1ccc2O [Compound 53]	16 to 64 (≈ 18.2 to 72.7 µM)	> 64	> 64	16 to 64 (≈ 18.2 to 72.7 µM)	< 1000	1000 to 10000	> 64	–	–	–	–	–	–	–	–	–
CCCCCCCCCCCCCCCC(=O)N(C)[C@H](CO)C(=O)N[C@H](CCc1ccccc1)C(=O)NCC(=O)N(C)[C@@H]1C(=O)N[C@@H](C)C(=O)N[C@H](C(=O)O)Cc2ccc(O)c(c2)-c2cc1ccc2O [Compound 41]	> 64	> 64	> 64	< 8	< 1000	< 1000	> 64	–	–	–	–	–	–	–	–	–
CCCCCCCCCCCCCCCC(=O)N(C)[C@H](CO)C(=O)N[C@H](C)C(=O)NCC(=O)N(C)[C@@H]1C(=O)N[C@@H](C)C(=O)N[C@H](C(=O)OCCN)Cc2ccc(O)c(c2)-c2cc1ccc2O [Compound 55]	< 8	> 64	> 64	< 8	1000 to 10000	1000 to 10000	16 to 64 (≈ 17.3 to 69.3 µM)	–	–	–	–	–	–	–	–	–
CCCCCCCCCCCCCCCC(=O)N(C)[C@H](CO)C(=O)N[C@H](C)C(=O)NCC(=O)N(C)[C@@H]1C(=O)N[C@@H](C)C(=O)N[C@H](C(=O)OC[C@H](C)N)Cc2ccc(O)c(c2)-c2cc1ccc2O [Compound 57]	16 to 64 (≈ 17.1 to 68.2 µM)	> 64	> 64	< 8	1000 to 10000	1000 to 10000	16 to 64 (≈ 17.1 to 68.2 µM)	–	–	–	–	–	–	–	–	–
CCCCc1ccc(-c2ccc(C(=O)N[C@H](CO)C(=O)N[C@H](C)C(=O)N[C@@H](CCCCN)C(=O)N(C)[C@@H]3C(=O)N[C@@H](C)C(=O)N[C@H](C(=O)O)Cc4ccc(O)c(c4)-c4cc3ccc4O)cc2)cc1 [Compound 98]	> 64	–	> 64	16 to 64 (≈ 17.1 to 68.4 µM)	–	–	< 8	> 64	–	–	–	–	–	–	–	–
CCCCc1ccc(-c2ccc(C(=O)N(C)[C@H](CO)C(=O)N[C@H](C)C(=O)N[C@@H](CCCCN)C(=O)N(C)[C@@H]3C(=O)N[C@@H](C)C(=O)N[C@H](C(=O)O)Cc4ccc(O)c(c4)-c4cc3ccc4O)cc2)cc1 [Compound 96]	–	–	–	–	–	–	–	–	a (MIC >64 μg/ml)	a (MIC >64 μg/ml)	a (MIC >64 μg/ml)	b (MIC 16-64 μg/ml)	a (MIC >64 μg/ml)	b (MIC 16-64 μg/ml)	–	–
CCCCCCCCCCCCCCCC(=O)N(C)[C@H](CO)C(=O)N[C@H](C)C(=O)NCC(=O)N(C)[C@@H]1C(=O)N[C@@H](C)C(=O)N[C@H](C(=O)N[C@@H](C)CO)Cc2ccc(O)c(c2)-c2cc1ccc2O [Compound 56]	16 to 64 (≈ 17.1 to 68.2 µM)	> 64	> 64	< 8	> 10000	1000 to 10000	> 64	–	–	–	–	–	–	–	–	–
CCCCCCCCCCCCCCCC(=O)N(C)[C@H](CO)C(=O)N[C@H](Cc1ccccc1)C(=O)NCC(=O)N(C)[C@@H]1C(=O)N[C@@H](C)C(=O)N[C@H](C(=O)O)Cc2ccc(O)c(c2)-c2cc1ccc2O [Compound 39]	16 to 64 (≈ 16.7 to 66.9 µM)	> 64	> 64	16 to 64 (≈ 16.7 to 66.9 µM)	< 1000	< 1000	< 8	–	–	–	–	–	–	–	–	–
CCCCCCCCCCCCCCCC(=O)N(C)[C@H](CN)C(=O)N[C@H](C)C(=O)NCC(=O)N(C)[C@@H]1C(=O)N[C@@H](C)C(=O)N[C@H](C(=O)O)Cc2ccc(O)c(c2)-c2cc1ccc2O [Compound 52]	–	–	–	–	–	–	–	–	b (MIC 16-64 μg/ml)	b (MIC 16-64 μg/ml)	a (MIC >64 μg/ml)	b (MIC 16-64 μg/ml)	–	a (MIC >64 μg/ml)	< 1000	1000 to 10000
CCCCCCc1ccc(C(=O)N(C)[C@H](CO)C(=O)N[C@H](C)C(=O)N[C@@H](CCCCN)C(=O)N(C)[C@@H]2C(=O)N[C@@H](C)C(=O)N[C@H](C(=O)O)Cc3ccc(O)c(c3)-c3cc2ccc3O)cc1 [Compound 97]	> 64	–	> 64	16 to 64 (≈ 17.7 to 70.9 µM)	–	–	16 to 64 (≈ 17.7 to 70.9 µM)	> 64	–	–	–	–	–	–	–	–
